# From patent US20230255205A1, “HERBICIDAL HETEROCYCLIC DERIVATIVES” (MoA Technology Limited, priority 2020, published 2023)
# Tests used:
# Type in all cases: in vivo
# [1] = system: Echinochloa crus-galli (ECHCG); assay: Comparative tests against non-claimed structural analogues, % visual injury; conditions: rate 125 g/ha
# Description: (§1) Selected compounds of the invention were also assessed in comparative tests (Table 5) against structural analogues not according to the invention (e.g. a compound containing an imidazole and one containing an oxazole, neither of which fall within the scope of the claimed invention). In each test, compounds were applied at a rate of 125 g/ha. Test 1 compared the efficacy of a compound of the invention (93) with a non-claimed structure which contains an unsubstituted triazole (105). […] Test 2 compared the efficacy of compound 93 with compound 104, which contains an imidazole and is therefore not according to the invention. […] Test 3 compared the efficacy of compound 43, a further compound according to the invention, with compound 103, which contains an oxazole not according to the invention.
# Veronica persica (VERPE) [2] = assay: as above; conditions: rate 125 g/ha
# Description: as §1
# [3] = system: Amaranthus retroflexus (AMARE); assay: as above; conditions: rate 125 g/ha
# Description: as §1
# [4] = system: Lolium multiflorum (LOLMU); assay: as above; conditions: rate 125 g/ha
# Description: as §1
# [5] = system: Echinochloa crus-galli (ECHCG); assay: Post-emergence herbicidal test, % visual injury; conditions: 336 h, 14±1 days post application; for pest or weed control at 500 g/ha: rate 500 g/ha; for pest or weed control at 1000 g/ha: rate 1000 g/ha
# Description: (§2) Seeds of a variety of test species are grown in a sandy loam soil mixture, Lolium multiflorum (LOLMU), Amaranthus retroflexus (AMARE), Echinochloa crus-galli (ECHCG), Veronica persica (VERPE).
# (§3) After sowing, at growth stage BBCH 12-14 (post-emergence), the plants are sprayed with an aqueous spray solution derived from the formulation of the technical active ingredient in acetone/water (50:50) solution containing 0.5% Tween 20 (polyoxyethlyene sorbitan monolaureate, CAS RN 9005-64-5). The test compounds are applied at the required concentration of active ingredient in g/ha. The test plants are then grown in a glasshouse under controlled environmental conditions and watered regularly as required. After 14±1 days post application (for post-emergence test), the test is evaluated by assessing the percentage damage caused to the plants in comparison with the untreated plots. The biological activities for post-emergence testing are shown below (Table 3) as a % visual injury.
# Veronica persica (VERPE) [6] = assay: Post-emergence herbicidal test, % visual injury; conditions: 336 h, 14±1 days post application; for pest or weed control at 500 g/ha: rate 500 g/ha; for pest or weed control at 1000 g/ha: rate 1000 g/ha
# Description: as §2, §3
# [7] = system: Amaranthus retroflexus (AMARE); assay: Post-emergence herbicidal test, % visual injury; conditions: 336 h, 14±1 days post application; for pest or weed control at 500 g/ha: rate 500 g/ha; for pest or weed control at 1000 g/ha: rate 1000 g/ha
# Description: as §2, §3
# [8] = system: Lolium multiflorum (LOLMU); assay: Post-emergence herbicidal test, % visual injury; conditions: 336 h, 14±1 days post application; for pest or weed control at 500 g/ha: rate 500 g/ha; for pest or weed control at 1000 g/ha: rate 1000 g/ha
# Description: as §2, §3
# [9] = system: Echinochloa crus-galli (ECHCG); assay: Pre-emergence herbicidal test, % visual injury; conditions: 336 h, rate 1000 g/ha, 14±1 days post-emergence in untreated plots
# Description: (§4) Pre-emergence testing was also performed using the same test species grown in a sandy loam soil mixture, Lolium multiflorum (LOLMU), Amaranthus retroflexus (AMARE), Echinochloa crus-galli (ECHCG), Veronica persica (VERPE).
# (§5) After sowing, at growth stage BBCH 00-07 (pre-emergence), the plants are sprayed with an aqueous spray solution derived from the formulation of the technical active ingredient in acetone/water (50:50) solution containing 0.5% Tween 20 (polyoxyethlyene sorbitan monolaureate, GAS RN 9005-64-5). The test compounds are applied at the required […] concentration of active ingredient in g/ha. The test plants are then grown in a glasshouse under controlled environmental conditions and watered regularly as required. After 14±1 days post-emergence in untreated plots (for the pre-emergence test), the test is evaluated by assessing the percentage damage caused to the plants in comparison with the untreated plots. The biological activities for pre-emergence testing are shown below (Table 4) in the following table as a % visual injury.
# Veronica persica (VERPE) [10] = assay: Pre-emergence herbicidal test, % visual injury; conditions: 336 h, rate 1000 g/ha, 14±1 days post-emergence in untreated plots
# Description: as §4, §5
# [11] = system: Lolium multiflorum (LOLMU); assay: Pre-emergence herbicidal test, % visual injury; conditions: 336 h, rate 1000 g/ha, 14±1 days post-emergence in untreated plots
# Description: as §4, §5
# [12] = system: Amaranthus retroflexus (AMARE); assay: Pre-emergence herbicidal test, % visual injury; conditions: rate 1000 g/ha, 14±1 days post-emergence in untreated plots
# Description: as §4, §5
SMILES,ECHCG % visual Injury [1],VERPE % visual Injury (Veronica persica (VERPE) [2]),AMARE % visual Injury [3],LOLMU % visual Injury [4],pest or weed control at 500 g/ha [5],pest or weed control at 500 g/ha (Veronica persica (VERPE) [6]),pest or weed control at 500 g/ha [7],pest or weed control at 500 g/ha [8],pest or weed control at 1000 g/ha [9],pest or weed control at 1000 g/ha (Veronica persica (VERPE) [10]),pest or weed control at 1000 g/ha [11],pest or weed control at 1000 g/ha [5],pest or weed control at 1000 g/ha (Veronica persica (VERPE) [6]),pest or weed control at 1000 g/ha [7],pest or weed control at 1000 g/ha [8],AMARE % visual Injury [12]
O=C(COc1ccc(F)cc1Cl)Nc1ncc(C(F)(F)F)o1 [Compound 103],30%,50%,50%,20%,,,,,,,,,,,,
Cc1nnc(NC(=O)COc2ccc(F)cc2Cl)o1 [Compound 26],,,,,90%,95%,90%,50%,30%,0%,50%,,,,,
Cc1cc(Cl)ccc1OCCCC(=O)Nc1nnc(C(F)(F)F)[nH]1 [Compound 29],,,,,0%,80%,60%,60%,0%,0%,20%,,,,,
Cc1cc(Cl)ccc1OCC(=O)Nc1nnc(C(F)(F)F)[nH]1 [Compound 35],,,,,,,,,80%,0%,0%,30%,60%,80%,20%,20%
CC(Oc1ccc(F)cc1Cl)C(=O)Nc1nnc(C(F)(F)F)[nH]1 (stereo not drawn) [Compound 32],,,,,,,,,0%,5%,0%,,,,,
O=C(COc1ccc(F)cc1Cl)Nc1ncc(C(F)(F)F)[nH]1 [Compound 104],30%,70%,40%,10%,,,,,,,,,,,,
O=C(COc1ccc(Cl)cc1Cl)Nc1nnc(C(F)(F)F)[nH]1 [Compound 36],,,,,,,,,40%,0%,0%,30%,98%,99%,40%,40%
O=C(COc1ccc(F)cc1Cl)Nc1nnc(C(F)(F)F)[nH]1 [Compound 93],30%,80%,60%,20%,80%,90%,100%,70%,,,,,,,,
O=C(COc1ccc(F)cc1Cl)Nc1nnc(C(F)(F)F)o1 [Compound 43],30%,70%,70%,50%,,,,,,,,,,,,
"O=C(CCCOc1ccc(F)cc1Cl)Nc1nnc(C(F)(F)F)[nH]1 [Compound 30, 4-(2-chloro-4-fluorophenoxy)-N-[5-(trifluoromethyl)-4H-1,2,4-triazol-3-yl]butanamide]",,,,,30%,60%,80%,70%,0%,0%,60%,,,,,
"O=C(CCCOc1ccc(Cl)cc1Cl)Nc1nnc(C(F)(F)F)[nH]1 [Compound 28, 4-(2,4-dichlorophenoxy)-N-[5-(trifluoromethyl)-4H-1,2,4-triazol-3-yl]butanamide]",,,,,10%,60%,70%,0%,0%,0%,40%,,,,,
O=C(COc1ccc(F)cc1Cl)Nc1nnc[nH]1 [Compound 105],20%,40%,50%,0%,,,,,,,,,,,,
Cn1nnnc1NC(=O)COc1ccc(F)cc1Cl [Compound 25],,,,,0%,70%,40%,70%,10%,10%,0%,,,,,
